Measured values published in patent US9339423B2, “Absorbent article” (UNICHARM CORPORATION, priority 2012, dated 2016).
Where two headings read alike, the source gives them in different places.

Columns and labels:
[1] = at 20° C.; cited from earlier work
[2] = Water solubility, visual evaluation after 24 hours
From the text: As used herein, the term “solubility” in regard to water solubility includes cases where the sample completely dissolves in deionized water to form a homogeneous mixture, and cases where the sample is completely emulsified. As used herein, “completely” means that no mass of the sample remains in the deionized water.

[3] = Rewetting rate of sanitary napkin with blood modifying agent-coated top sheet; conditions: horse EDTA blood 3 g twice at 37±1° C.; agent coated about 5 g/m^2 on top sheet
Experimental: (§1) A commercially available sanitary napkin was prepared. The sanitary napkin was formed from a top sheet, formed of a hydrophilic agent-treated air-through nonwoven fabric (composite fiber composed of polyester and polyethylene terephthalate, basis weight: 35 g/m^2), a second sheet, formed of an air-through nonwoven fabric (composite fiber composed of polyester and polyethylene terephthalate, basis weight: 30 g/m^2), an absorbent body comprising pulp (basis weight: 150-450 g/m^2, increased at the center section), an acrylic super-absorbent polymer (basis weight: 15 g/m^2) and tissue as a core wrap, a water-repellent agent-treated side sheet, and a back sheet composed of a polyethylene film.
(§2) The skin contact surface of the top sheet of the sanitary napkin was coated with the aforementioned blood modifying agent. Each blood modifying agent was used directly, when the blood modifying agent was liquid at room temperature, or when the blood modifying agent was solid at room temperature it was heated to its […], and a control seam HMA gun was used for atomization of the blood modifying agent and coating onto the entire skin contact surface of the top sheet to a basis weight of about 5 g/m^2.
(§3) (obtained by adding appropriate amount of ethylenediaminetetraacetic acid (hereunder, “EDTA”) to horse blood to prevent coagulation) was dropped through the hole using a pipette (once), and after 1 minute, 3 g of horse EDTA blood at 37±1° C. was again added dropwise through the acrylic board hole with a pipette (twice).

[4] = Absorbent body migration rate of sanitary napkin; conditions: horse EDTA blood, after second dropping; agent coated about 5 g/m^2
Experimental: as §1, §2, §3
In addition to the rewetting rate evaluation, the “absorbent body migration rate” was also measured as the time until migration of blood from the top sheet to the absorbent body after the second dropping of blood. The absorbent body migration rate is the time from introducing the blood onto the top sheet, until the redness of the blood […] on the surface and in the interior of the top sheet.

Row | Compound | Absorber migration rate [4] | also measured
1 | CCCCC(=O)CCCC [5-nonanone] |  | Vapor pressure [1]: about 230 Pa
2 | CC(C)CCCCCCCCCCCCCCCOC(=O)CC(O)C(=O)OCCCCCCCCCCCCCCCC(C)C (stereo not drawn) [Diisostearyl malate] | 8 s | Water solubility (g) [2]: 20< g; Rewetting rate (%) [3]: 5.5%
3 | CCCCCCCCOC(=O)CCCCC(=O)OCCCCCCCC [Dioctyl adipate] | 6 s | 
4 | CCCCCCCCCCCCOC(=O)CCCCCCCCCCC [ELECTOL WE20, Ester of dodecanoic acid (C12) and dodecyl alcohol (C12)] | 5 s | 
5 | CCCCCCCCCCCCCC(=O)OCCCCCCCCCCCC [ELECTOL WE40, Ester of tetradecanoic acid (C14) and dodecyl alcohol (C12)] | 4 s | 
6 | CCCCCCCCCCCC(=O)OCC(O)CO (stereo not drawn) [Monomuls 90-L2 lauric acid monoglyceride, lauric acid monoglyceride] | 7 s | 
7 | CCCCC(CC)C(=O)OCC(COC(=O)C(CC)CCCC)OC(=O)C(CC)CCCC (stereo not drawn) [PANACET 800B] | 3 s | Water solubility [2]: <0.05 g; Rewetting rate (%) [3]: 2.0%
8 | CCCCCCCC(=O)OCC(COC(=O)CCCCCCC)OC(=O)CCCCCCC [PANACET 800] | 3 s | 
9 | CCCCOC(=O)CC(CC(=O)OCCCC)(OC(C)=O)C(=O)OCCCC [Tributyl O-acetylcitrate] | 8 s | Water solubility ([2]; in 100 g of water at 25° C., 24 hours): <0.05 g; Rewetting rate (%) [3]: 6.2%
10 | CCCCC(CC)C(=O)OCC(C)(C)COC(=O)C(CC)CCCC (stereo not drawn) [UNISTAR H-208BRS, Neopentylglycol di-2-ethylhexanoate] | 5 s | 
11 | Caprylic acid diglyceride | 9 s | 
12 | Isopropyl citrate | 5 s | 
